Experiment in all cases: relative viability (nuclei count vs DMSO), 5 days (fraction); higher = more cells survive
Compound in the experiment “Everolimus + OSI-027”: CO[C@H]1C[C@@H]2CC[C@@H](C)[C@@](O)(O2)C(=O)C(=O)N2CCCC[C@H]2C(=O)O[C@H]([C@H](C)C[C@@H]2CC[C@@H](OCCO)[C@H](OC)C2)CC(=O)[C@H](C)/C=C(\C)[C@@H](O)[C@@H](OC)C(=O)[C@H](C)C[C@H](C)/C=C/C=C/C=C/1C [Everolimus] + COc1cccc2cc(-c3nc([C@H]4CC[C@H](C(=O)O)CC4)n4ncnc(N)c34)[nH]c12 [OSI-027] (partner 0.5 µM)
An outline of the steps:
(§1)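 Cells from lung cancer lines were seeded into 1536-well plates and, one day later, dosed by pin tool. Treatments were either a single drug or a fixed dose of an anchor drug with five library-drug doses (not always all listed) in √10 steps. After 5 days, nuclei were stained in a one-step fixation (final 0.05% Triton X-100, 1% formaldehyde, 1 ug/ml Hoechst) and counted on 4× images, and relative viability is the treated-to-vehicle nuclei ratio, as the median of duplicate plates.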

Compound in the experiment “Everolimus + Luminespib”: CO[C@H]1C[C@@H]2CC[C@@H](C)[C@@](O)(O2)C(=O)C(=O)N2CCCC[C@H]2C(=O)O[C@H]([C@H](C)C[C@@H]2CC[C@@H](OCCO)[C@H](OC)C2)CC(=O)[C@H](C)/C=C(\C)[C@@H](O)[C@@H](OC)C(=O)[C@H](C)C[C@H](C)/C=C/C=C/C=C/1C [Everolimus] + CCNC(=O)c1noc(-c2cc(C(C)C)c(O)cc2O)c1-c1ccc(CN2CCOCC2)cc1 [Luminespib] (partner 0.01 µM)
The essentials:
as §1

Compound in the experiment “Everolimus + Lapatinib”: CO[C@H]1C[C@@H]2CC[C@@H](C)[C@@](O)(O2)C(=O)C(=O)N2CCCC[C@H]2C(=O)O[C@H]([C@H](C)C[C@@H]2CC[C@@H](OCCO)[C@H](OC)C2)CC(=O)[C@H](C)/C=C(\C)[C@@H](O)[C@@H](OC)C(=O)[C@H](C)C[C@H](C)/C=C/C=C/C=C/1C [Everolimus] + CS(=O)(=O)CCNCc1ccc(-c2ccc3ncnc(Nc4ccc(OCc5cccc(F)c5)c(Cl)c4)c3c2)o1 [Lapatinib] (partner 2 µM)
The essentials:
as §1

Compound in the experiment “Everolimus + Linsitinib”: CO[C@H]1C[C@@H]2CC[C@@H](C)[C@@](O)(O2)C(=O)C(=O)N2CCCC[C@H]2C(=O)O[C@H]([C@H](C)C[C@@H]2CC[C@@H](OCCO)[C@H](OC)C2)CC(=O)[C@H](C)/C=C(\C)[C@@H](O)[C@@H](OC)C(=O)[C@H](C)C[C@H](C)/C=C/C=C/C=C/1C [Everolimus] + C[C@]1(O)C[C@@H](c2nc(-c3ccc4ccc(-c5ccccc5)nc4c3)c3c(N)nccn32)C1 [Linsitinib] (partner 1 µM)
The essentials: as §1

For NCI-H596, the relative viability with Everolimus + OSI-027 (first compound 0.01 µM) was 0.506; in the experiment with Everolimus + OSI-027 (first compound 0.03162 µM) it was 0.471; with Everolimus + OSI-027 (first compound 0.1 µM), 0.417; with Everolimus + OSI-027 (first compound 0.3162 µM) it was 0.45; with Everolimus + OSI-027 (first compound 1 µM) it was 0.457; in the experiment with Everolimus + Luminespib (first compound 0.01 µM) it was 0.636. Also, the relative viability with Everolimus + Luminespib (first compound 0.03162 µM) turned out to be 0.5; with Everolimus + Luminespib (first compound 0.1 µM), 0.379; with Everolimus + Luminespib (first compound 0.3162 µM), 0.533; with Everolimus + Luminespib (first compound 1 µM), 0.519; with Everolimus + Lapatinib (first compound 0.01 µM), 0.715; with Everolimus + Lapatinib (first compound 0.03162 µM) it was 0.677. Also, the relative viability is 0.545 with Everolimus + Lapatinib (first compound 0.1 µM); 0.676 with Everolimus + Lapatinib (first compound 0.3162 µM); 0.677 in the experiment with Everolimus + Lapatinib (first compound 1 µM); 0.653 with Everolimus + Linsitinib (first compound 0.01 µM); 0.651 with Everolimus + Linsitinib (first compound 0.03162 µM); 0.53 with Everolimus + Linsitinib (first compound 0.1 µM). Also, the figures for the relative viability with Everolimus + Linsitinib (first compound 0.3162 µM) and in the experiment with Everolimus + Linsitinib (first compound 1 µM) were 0.532 and 0.515, respectively.
In the case of NCI-H2009, the relative viability with Everolimus + OSI-027 (first compound 0.01 µM) stood at 0.34; with Everolimus + OSI-027 (first compound 0.03162 µM) it was 0.344; with Everolimus + OSI-027 (first compound 0.1 µM), 0.424; with Everolimus + OSI-027 (first compound 0.3162 µM), 0.374; with Everolimus + OSI-027 (first compound 1 µM), 0.397; with Everolimus + Luminespib (first compound 0.01 µM), 0.832. Moreover, the relative viability in the experiment with Everolimus + Luminespib (first compound 0.03162 µM) turned out to be 0.866; in the experiment with Everolimus + Luminespib (first compound 0.1 µM), 0.77; with Everolimus + Luminespib (first compound 0.3162 µM) it was 0.852; with Everolimus + Luminespib (first compound 1 µM), 0.72; with Everolimus + Lapatinib (first compound 0.01 µM) it was 0.853; in the experiment with Everolimus + Lapatinib (first compound 0.03162 µM), 0.782. The relative viability with Everolimus + Lapatinib (first compound 0.1 µM) worked out at 0.441; in the experiment with Everolimus + Lapatinib (first compound 0.3162 µM), 0.878; with Everolimus + Lapatinib (first compound 1 µM), 0.877; with Everolimus + Linsitinib (first compound 0.01 µM), 0.875; in the experiment with Everolimus + Linsitinib (first compound 0.03162 µM), 0.897; with Everolimus + Linsitinib (first compound 0.1 µM), 0.901. The relative viability with Everolimus + Linsitinib (first compound 0.3162 µM) turned out to be 0.887; in the experiment with Everolimus + Linsitinib (first compound 1 µM), 0.795.
Consider NCI-H2126, for which the relative viability was determined as 0.528 in the experiment with Everolimus + OSI-027 (first compound 0.01 µM); 0.431 in the experiment with Everolimus + OSI-027 (first compound 0.03162 µM); 0.414 in the experiment with Everolimus + OSI-027 (first compound 0.1 µM); 0.475 in the experiment with Everolimus + OSI-027 (first compound 0.3162 µM); 0.426 in the experiment with Everolimus + OSI-027 (first compound 1 µM); 0.532 with Everolimus + Luminespib (first compound 0.01 µM). Also, the relative viability was 0.457 with Everolimus + Luminespib (first compound 0.03162 µM); 0.42 in the experiment with Everolimus + Luminespib (first compound 0.1 µM); 0.564 in the experiment with Everolimus + Luminespib (first compound 0.3162 µM); 0.381 in the experiment with Everolimus + Luminespib (first compound 1 µM); 0.458 in the experiment with Everolimus + Lapatinib (first compound 0.01 µM); 0.485 with Everolimus + Lapatinib (first compound 0.03162 µM). For the same cell line, the relative viability with Everolimus + Lapatinib (first compound 0.1 µM) was 0.426; in the experiment with Everolimus + Lapatinib (first compound 0.3162 µM), 0.472; with Everolimus + Lapatinib (first compound 1 µM), 0.501; with Everolimus + Linsitinib (first compound 0.01 µM), 0.463; with Everolimus + Linsitinib (first compound 0.03162 µM), 0.448; in the experiment with Everolimus + Linsitinib (first compound 0.1 µM) it was 0.393. In addition, the relative viability with Everolimus + Linsitinib (first compound 0.3162 µM) was 0.425; with Everolimus + Linsitinib (first compound 1 µM), 0.457.
Take LXF-289: the relative viability is 0.654 in the experiment with Everolimus + OSI-027 (first compound 0.01 µM); 0.604 with Everolimus + OSI-027 (first compound 0.03162 µM); 0.529 with Everolimus + OSI-027 (first compound 0.1 µM); 0.572 with Everolimus + OSI-027 (first compound 0.3162 µM); 0.576 with Everolimus + OSI-027 (first compound 1 µM); 0.59 with Everolimus + Luminespib (first compound 0.01 µM). The relative viability with Everolimus + Luminespib (first compound 0.03162 µM) was determined as 0.512; in the experiment with Everolimus + Luminespib (first compound 0.1 µM) it was 0.582; with Everolimus + Luminespib (first compound 0.3162 µM), 0.641; with Everolimus + Luminespib (first compound 1 µM), 0.66; in the experiment with Everolimus + Lapatinib (first compound 0.01 µM) it was 0.908; in the experiment with Everolimus + Lapatinib (first compound 0.03162 µM) it was 0.951. Further, the relative viability with Everolimus + Lapatinib (first compound 0.1 µM) was 0.889; with Everolimus + Lapatinib (first compound 0.3162 µM), 0.889; in the experiment with Everolimus + Lapatinib (first compound 1 µM), 0.899; with Everolimus + Linsitinib (first compound 0.01 µM) it was 0.984; with Everolimus + Linsitinib (first compound 0.03162 µM), 0.972; in the experiment with Everolimus + Linsitinib (first compound 0.1 µM), 0.913. For the same cell line, the values for the relative viability in the experiment with Everolimus + Linsitinib (first compound 0.3162 µM) and with Everolimus + Linsitinib (first compound 1 µM) were 1.02 and 0.917, respectively.
For NCI-H1563, the relative viability with Everolimus + OSI-027 (first compound 0.01 µM) turned out to be 0.628; with Everolimus + OSI-027 (first compound 0.03162 µM), 0.645; with Everolimus + OSI-027 (first compound 0.1 µM), 0.622; with Everolimus + OSI-027 (first compound 0.3162 µM) it was 0.693; with Everolimus + OSI-027 (first compound 1 µM), 0.643; with Everolimus + Luminespib (first compound 0.01 µM), 0.54. Moreover, the relative viability is 0.479 with Everolimus + Luminespib (first compound 0.03162 µM); 0.548 with Everolimus + Luminespib (first compound 0.1 µM); 0.501 with Everolimus + Luminespib (first compound 0.3162 µM); 0.496 with Everolimus + Luminespib (first compound 1 µM); 0.785 with Everolimus + Lapatinib (first compound 0.01 µM); 0.839 with Everolimus + Lapatinib (first compound 0.03162 µM). The relative viability worked out at 0.758 with Everolimus + Lapatinib (first compound 0.1 µM); 0.769 with Everolimus + Lapatinib (first compound 0.3162 µM); 0.817 with Everolimus + Lapatinib (first compound 1 µM); 0.993 in the experiment with Everolimus + Linsitinib (first compound 0.01 µM); 0.757 with Everolimus + Linsitinib (first compound 0.03162 µM); 0.766 with Everolimus + Linsitinib (first compound 0.1 µM). The values for the relative viability with Everolimus + Linsitinib (first compound 0.3162 µM) and in the experiment with Everolimus + Linsitinib (first compound 1 µM) were 0.683 and 0.734, respectively.
As to HCC-44, the relative viability in the experiment with Everolimus + OSI-027 (first compound 0.01 µM) worked out at 0.382; with Everolimus + OSI-027 (first compound 0.03162 µM), 0.438; with Everolimus + OSI-027 (first compound 0.1 µM), 0.434; with Everolimus + OSI-027 (first compound 0.3162 µM), 0.384; with Everolimus + OSI-027 (first compound 1 µM) it was 0.548; in the experiment with Everolimus + Luminespib (first compound 0.01 µM), 1.02. The relative viability with Everolimus + Luminespib (first compound 0.03162 µM) was found to be 0.851; with Everolimus + Luminespib (first compound 0.1 µM), 1.05; in the experiment with Everolimus + Luminespib (first compound 0.3162 µM), 0.938; in the experiment with Everolimus + Luminespib (first compound 1 µM) it was 1.56; with Everolimus + Lapatinib (first compound 0.01 µM), 1.01; in the experiment with Everolimus + Lapatinib (first compound 0.03162 µM), 1.11. Besides, the relative viability was found to be 1.12 in the experiment with Everolimus + Lapatinib (first compound 0.1 µM); 1.01 with Everolimus + Lapatinib (first compound 0.3162 µM); 0.938 with Everolimus + Lapatinib (first compound 1 µM); 0.467 in the experiment with Everolimus + Linsitinib (first compound 0.01 µM); 0.545 with Everolimus + Linsitinib (first compound 0.03162 µM); 0.313 in the experiment with Everolimus + Linsitinib (first compound 0.1 µM). Further, the relative viability with Everolimus + Linsitinib (first compound 0.3162 µM) came to 0.349; in the experiment with Everolimus + Linsitinib (first compound 1 µM), 0.411.
As to PC-14, the relative viability in the experiment with Everolimus + OSI-027 (first compound 0.01 µM) turned out to be 0.567; with Everolimus + OSI-027 (first compound 0.03162 µM), 0.482; with Everolimus + OSI-027 (first compound 0.1 µM), 0.418; in the experiment with Everolimus + OSI-027 (first compound 0.3162 µM) it was 0.455; with Everolimus + OSI-027 (first compound 1 µM), 0.455; with Everolimus + Luminespib (first compound 0.01 µM), 0.175. In addition, the relative viability in the experiment with Everolimus + Luminespib (first compound 0.03162 µM) came out at 0.171; with Everolimus + Luminespib (first compound 0.1 µM), 0.145; with Everolimus + Luminespib (first compound 0.3162 µM) it was 0.171; with Everolimus + Luminespib (first compound 1 µM) it was 0.191; in the experiment with Everolimus + Lapatinib (first compound 0.01 µM) it was 0.231; with Everolimus + Lapatinib (first compound 0.03162 µM) it was 0.226. Further, the relative viability was 0.22 with Everolimus + Lapatinib (first compound 0.1 µM); 0.192 with Everolimus + Lapatinib (first compound 0.3162 µM); 0.234 with Everolimus + Lapatinib (first compound 1 µM); 0.937 with Everolimus + Linsitinib (first compound 0.01 µM); 1 in the experiment with Everolimus + Linsitinib (first compound 0.03162 µM); 0.945 in the experiment with Everolimus + Linsitinib (first compound 0.1 µM). For the same cell line, the relative viability came out at 0.82 with Everolimus + Linsitinib (first compound 0.3162 µM) and 0.724 in the experiment with Everolimus + Linsitinib (first compound 1 µM).

The values are drawn from the supplement of paper PMC10307832.
